Measurements: paper PMC9516332 (Frontiers in Oncology, 2022)
Like-named read-outs stand apart in the source and are kept apart here.

What was measured:
Test in all cases: Kinase panel profiling at 1 µmol/L (MSA or IMAP), percentage inhibition
Type in all cases: biochemical
[1] = biological target: panel of 255 wild-type kinases (Homo sapiens, UniProt P50613); conditions: read-out: %-inhibition CDK7/CycH/MAT1
[2] = biological target: panel of 255 wild-type kinases (Homo sapiens, UniProt Q9UQM7); conditions: read-out: %-inhibition CaMK2α
[3] = biological target: panel of 255 wild-type kinases (Homo sapiens, UniProt P22612); conditions: read-out: %-inhibition at 1 µmol/L, PKACγ
[4] = biological target: panel of 255 wild-type kinases (Homo sapiens, UniProt P43405); conditions: read-out: %-inhibition at 1 µmol/L, SYK
[5] = biological target: panel of 255 wild-type kinases (Homo sapiens, UniProt P16234); conditions: read-out: %-inhibition at 1 µmol/L, PDGFRα
[6] = biological target: T1, panel of 255 wild-type kinases (Homo sapiens, UniProt Q8TD19); conditions: read-out: %-inhibition, NEK9
T1 sequence (Q8TD19 1-979): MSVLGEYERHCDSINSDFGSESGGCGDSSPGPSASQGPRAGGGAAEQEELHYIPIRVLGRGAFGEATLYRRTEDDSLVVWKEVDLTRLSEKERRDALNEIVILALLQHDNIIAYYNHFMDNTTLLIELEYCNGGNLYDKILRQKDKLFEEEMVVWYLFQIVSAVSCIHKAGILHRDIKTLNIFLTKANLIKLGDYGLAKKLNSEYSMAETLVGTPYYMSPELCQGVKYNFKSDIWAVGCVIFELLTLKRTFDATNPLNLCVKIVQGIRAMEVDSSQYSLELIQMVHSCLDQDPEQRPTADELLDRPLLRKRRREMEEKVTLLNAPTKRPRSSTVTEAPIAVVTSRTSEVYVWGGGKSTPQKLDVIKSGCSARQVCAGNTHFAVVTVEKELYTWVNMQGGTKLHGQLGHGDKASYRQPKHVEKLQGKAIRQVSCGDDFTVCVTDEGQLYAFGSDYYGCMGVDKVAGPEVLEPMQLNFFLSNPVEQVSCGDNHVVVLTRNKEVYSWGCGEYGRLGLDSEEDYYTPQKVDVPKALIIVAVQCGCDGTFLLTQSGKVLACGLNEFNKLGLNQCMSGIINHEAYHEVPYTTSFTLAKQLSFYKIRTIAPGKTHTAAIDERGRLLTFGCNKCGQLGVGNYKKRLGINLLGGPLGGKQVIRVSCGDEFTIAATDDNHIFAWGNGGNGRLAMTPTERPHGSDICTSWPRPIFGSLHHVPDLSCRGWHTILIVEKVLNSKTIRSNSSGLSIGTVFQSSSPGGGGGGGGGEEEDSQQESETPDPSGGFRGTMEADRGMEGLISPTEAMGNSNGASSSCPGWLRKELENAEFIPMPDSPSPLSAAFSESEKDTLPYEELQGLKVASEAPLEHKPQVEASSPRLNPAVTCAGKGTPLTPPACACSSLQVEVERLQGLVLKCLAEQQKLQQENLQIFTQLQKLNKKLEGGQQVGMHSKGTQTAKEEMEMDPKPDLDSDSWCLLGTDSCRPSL

[7] = biological target: panel of 255 wild-type kinases (Homo sapiens, UniProt Q9BYP7); conditions: read-out: %-inhibition at 1 µmol/L, WNK3
[8] = biological target: panel of 255 wild-type kinases (Homo sapiens, UniProt P05771); conditions: read-out: %-inhibition at 1 µmol/L, PKCβ1
[9] = biological target: panel of 255 wild-type kinases (Homo sapiens, UniProt P07948); conditions: read-out: %-inhibition at 1 µmol/L, LYNa
[10] = biological target: panel of 255 wild-type kinases (Homo sapiens, UniProt Q9H422); conditions: read-out: %-inhibition at 1 µmol/L, HIPK3
[11] = biological target: T2, panel of 255 wild-type kinases (Homo sapiens, UniProt P42680); conditions: read-out: %-inhibition at 1 µmol/L, TEC
T2 sequence (P42680 1-631): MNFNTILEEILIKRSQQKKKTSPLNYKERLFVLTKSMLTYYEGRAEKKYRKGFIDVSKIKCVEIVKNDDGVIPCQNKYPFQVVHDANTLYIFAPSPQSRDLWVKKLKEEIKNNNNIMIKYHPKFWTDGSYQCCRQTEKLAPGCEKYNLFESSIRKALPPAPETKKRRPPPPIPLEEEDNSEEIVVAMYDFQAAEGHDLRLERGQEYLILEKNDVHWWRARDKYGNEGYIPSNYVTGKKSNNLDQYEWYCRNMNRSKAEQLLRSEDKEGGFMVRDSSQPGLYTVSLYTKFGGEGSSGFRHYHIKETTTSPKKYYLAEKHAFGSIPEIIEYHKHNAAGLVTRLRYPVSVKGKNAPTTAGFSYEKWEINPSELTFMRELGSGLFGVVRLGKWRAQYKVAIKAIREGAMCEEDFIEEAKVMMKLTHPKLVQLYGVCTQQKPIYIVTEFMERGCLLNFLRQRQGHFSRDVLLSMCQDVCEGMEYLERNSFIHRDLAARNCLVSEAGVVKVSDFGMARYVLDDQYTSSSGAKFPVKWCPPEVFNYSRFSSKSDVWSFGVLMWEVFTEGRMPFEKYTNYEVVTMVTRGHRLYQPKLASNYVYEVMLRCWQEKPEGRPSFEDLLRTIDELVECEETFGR

[12] = CDK7/CycH/MAT1 kinase assay, 1 µmol/L single concentration
[13] = CaMK2α kinase assay, 1 µmol/L single concentration
[14] = kinase PKACγ, 1 µmol/L single concentration
[15] = kinase SYK, 1 µmol/L single concentration
[16] = kinase PDGFRα, 1 µmol/L single concentration
[17] = NEK9, 1 µmol/L single concentration
[18] = kinase WNK3, 1 µmol/L single concentration
[19] = kinase PKCβ1, 1 µmol/L single concentration
[20] = kinase LYNa, 1 µmol/L single concentration
[21] = kinase HIPK3, 1 µmol/L single concentration
[22] = kinase TEC, 1 µmol/L single concentration

Compound | inhibition at 1 µM [1, 12] | inhibition at 1 µM [2, 13] | inhibition at 1 µM [3, 14] | inhibition at 1 µM [4, 15] | inhibition at 1 µM [5, 16] | inhibition at 1 µM [6, 17] | inhibition at 1 µM [7, 18] | inhibition at 1 µM [8, 19] | inhibition at 1 µM [9, 20] | inhibition at 1 µM [10, 21] | inhibition at 1 µM [11, 22] | also measured
COC(=O)N[C@@H](C)CNc1nccc(-c2cn(C(C)C)nc2-c2cc(Cl)cc(NS(C)(=O)=O)c2F)n1 [encorafenib] | -6.5% | -2.55% | -2.32% | -20% | 4% | -4.26% | -1.55% | -1% | 5% | 5.63% | -1.53% | 
C[C@H](Nc1ncnc2nc[nH]c12)c1cc2cccc(Cl)c2c(=O)n1-c1ccccc1 [duvelisib] | -5.41% | 0.0129% | -4% | -2.35% | 2% | 1.7% | -0.718% | 5% | 0.825% | 3.5% | 1.84% | 
CCN1CCN(c2ccc(Nc3cc(N(C)C(=O)Nc4c(Cl)c(OC)cc(OC)c4Cl)ncn3)cc2)CC1 [infigratinib] | 9% | -1.22% | -0.0435% | -17% | 59% | 10% | 1.62% | 5% | 84% | -3.71% | 7% | 
CNC(=O)c1ccc(-c2cnc3ncc(Cc4ccc5ncccc5c4)n3n2)cc1F [capmatinib] |  |  |  |  |  |  |  |  |  |  |  | inhibition at 1 µM [1]: -0.376%; inhibition at 1 µM [2]: -0.603%; inhibition at 1 µM [3]: -1.43%; inhibition at 1 µM [4]: 2.11%; inhibition at 1 µM [5]: 18%; inhibition at 1 µM [6]: -1.11%; inhibition at 1 µM [7]: -1.77%; inhibition at 1 µM [8]: 1.2%; inhibition at 1 µM [9]: 1.12%; inhibition at 1 µM [10]: -3%; inhibition at 1 µM [11]: 4%
FC(F)(F)c1ccc(CNc2ccc(Cc3c[nH]c4ncc(Cl)cc34)cn2)cn1 [pexidartinib] | 22% | -4% | 3% | -6% | 83% | 1.33% | 0.624% | 4.22% | 24% | 3.52% | -0.0585% | 
O=C(Nc1cnn2ccc(N3CCC[C@@H]3c3cc(F)ccc3F)nc12)N1CC[C@H](O)C1 [larotrectinib] | -8% | 2.74% | -4% | -8% | 2.45% | -4.43% | -0.6% | -2.11% | 5% | -4% | 1.59% | 
CCc1nc(C(N)=O)c(Nc2ccc(N3CCC(N4CCN(C)CC4)CC3)c(OC)c2)nc1NC1CCOCC1 [gilteritinib] |  | 36% | 5.41% | 70% | 95% | 21% | 5% | 19% | 88% | 66% | 44% | inhibition at 1 µM [1]: 31%
CCn1c(=O)c(-c2cc(NC(=O)Nc3ccccc3)c(F)cc2Br)cc2cnc(NC)cc21 [ripretinib] | -1.48% | -5.68% | 2.69% | -8% |  | -2.78% | -1.09% | 1.06% | 85% | 4% | 5.66% | 
CN1CCN(c2ccc(C(=O)Nc3n[nH]c4ccc(Cc5cc(F)cc(F)c5)cc34)c(NC3CCOCC3)c2)CC1 [entrectinib] | 27% | 12% | -4.58% | -5.27% | 29% | 17% | 8.51% | 12% | 74% | 5% | 97% | 
Cn1cnc2c(F)c(Nc3ccc(Br)cc3F)c(C(=O)NOCCO)cc21 [binimetinib] | -5% | -4.55% | -3% | -19% | 2% | -6.59% | -2.67% | -3.39% | 3.76% | 0.0241% | 0.674% | 
C[C@H]1Oc2cc(cnc2N)-c2c(nn(C)c2C#N)CN(C)C(=O)c2ccc(F)cc21 [lorlatinib] |  | 3.76% | -6% | 16% | 1.74% | 6% | 6% | 7% | 21% | 0.506% | 3% | 
C=CC(=O)N1CCC([C@@H]2CCNc3c(C(N)=O)c(-c4ccc(Oc5ccccc5)cc4)nn32)CC1 [zanubrutinib] | -9% | 2% | -4.62% | -6.37% | 11% | -2% | 5.7% | 0.363% |  | -2.42% |  | inhibition at 1 µM [11]: 96%
Cn1cc(-c2cc3c(N4CCN(c5ncc([C@@](C)(N)c6ccc(F)cc6)cn5)CC4)ncnn3c2)cn1 [avapritinib] | 0.833% | -2.45% | 4.43% |  |  | 30% | -0.0892% | 1.74% | 87% | -0.071% | 16% | inhibition at 1 µM [4]: 44%
